# Results published in ChEMBL document CHEMBL3885861, “Open TG-GATES”.
# Organism: Rattus norvegicus
# Assay: Open TG-GATES - Regimen: Daily Repeat
# Format: toxicity, organism-based, Sprague-Dawley
# Design: regimen Daily Repeat, gender Male, age 6 weeks
# Details: in vivo, po, route gavage; for TP / gamma-GTP / ALP / ALT / AST / BUN / CRE / DBIL / GLC / IP / K / LDH / Na / PL / RALB / TBIL / TC / TG: tissue Plasma; for APTT / Bas / Eos / Fbg / Hb / Ht / Lym / MCH / MCHC / MCV / Mono / Neu / PT / Plat / RBC / Ret / WBC: tissue Blood; for KIDNEY_L / KIDNEY_R / KIDNEY_TOTAL: tissue Kidney; for LIVER: tissue Liver
# [1] = 45 mg/kg, […], dose level Low, time 28 day
# [2] = 150 mg/kg, 72 h, dose level Middle, time 3 day
# [3] = 150 mg/kg, […], dose level Middle, time 7 day
# [4] = 150 mg/kg, […], dose level Middle, time 14 day
# [5] = 150 mg/kg, […], dose level Middle, time 28 day
# [6] = 450 mg/kg, 72 h, dose level High, time 3 day
# [7] = 450 mg/kg, […], dose level High, time 7 day
# [8] = 450 mg/kg, […], dose level High, time 14 day
# [9] = 450 mg/kg, […], dose level High, time 28 day
compound,measurement,setting,value
CC(CCc1ccccc1)NCC(O)c1ccc(O)c(C(N)=O)c1 (stereo not drawn) [LABETALOL],TP,[1],6.4 g/dL
same,gamma-GTP,[1],1 IU/L
same,TERMINAL_BW,[2],253.6 g
same,APTT,[2],16.1 s
same,Bas,[2],0.2%
same,Eos,[2],0.8%
same,Fbg,[2],278 mg/dL
same,Hb,[2],13.8 g/dL
same,Ht,[2],40.7%
same,Lym,[2],75%
same,MCH,[2],21.7 pg
same,MCHC,[2],33.9%
same,MCV,[2],64 fL
same,Mono,[2],2.6%
same,Neu,[2],21.2%
same,PT,[2],12.9 s
same,Plat,[2],117.8 x10_4/uL
same,RBC,[2],636.6 x10_4/ul
same,Ret,[2],7.2%
same,WBC,[2],104.5 x10_2/uL
same,KIDNEY_L,[2],1 g
same,KIDNEY_R,[2],1 g
same,KIDNEY_TOTAL,[2],2 g
same,LIVER,[2],11.7 g
same,ALP,[2],2122.4 IU/L
same,ALT,[2],47 IU/L
same,AST,[2],76.8 IU/L
same,BUN,[2],16.6 mg/dL
same,CRE,[2],0.2 mg/dL
same,DBIL,[2],0.018 mg/dL
same,GLC,[2],180 mg/dL
same,IP,[2],7.8 mg/dL
same,K,[2],4 meq/L
same,LDH,[2],65.6 IU/L
same,Na,[2],145 meq/L
same,PL,[2],155.4 mg/dL
same,RALB,[2],2.7 g/dL
same,TBIL,[2],0.028 mg/dL
same,TC,[2],84.8 mg/dL
same,TG,[2],120.6 mg/dL
same,TP,[2],5.9 g/dL
same,gamma-GTP,[2],1 IU/L
same,TERMINAL_BW,[3],288.5 g
same,TERMINAL_BW,[4],339.7 g
same,TERMINAL_BW,[5],424.9 g
same,APTT,[3],17.3 s
same,Bas,[3],0%
same,Eos,[3],1%
same,Fbg,[3],310.4 mg/dL
same,Hb,[3],14.8 g/dL
same,Ht,[3],42.8%
same,Lym,[3],73.4%
same,MCH,[3],21.3 pg
same,MCHC,[3],34.5%
same,MCV,[3],61.9 fL
same,Mono,[3],2.6%
same,Neu,[3],22.2%
same,PT,[3],12.9 s
same,Plat,[3],110.9 x10_4/uL
same,RBC,[3],693.2 x10_4/ul
same,Ret,[3],5.2%
same,WBC,[3],92.4 x10_2/uL
same,APTT,[4],17.1 s
same,Bas,[4],0.2%
same,Eos,[4],1.2%
same,Fbg,[4],300.4 mg/dL
same,Hb,[4],14.9 g/dL
same,Ht,[4],42.9%
same,Lym,[4],71.2%
same,MCH,[4],20.6 pg
same,MCHC,[4],34.6%
same,MCV,[4],59.5 fL
same,Mono,[4],2.2%
same,Neu,[4],24.8%
same,PT,[4],13.1 s
same,RBC,[4],721.4 x10_4/ul
same,Ret,[4],4.3%
same,WBC,[4],99.2 x10_2/uL
same,APTT,[5],19 s
same,Bas,[5],0.4%
same,Eos,[5],1.4%
same,Fbg,[5],286.4 mg/dL
same,Hb,[5],15.6 g/dL
same,Ht,[5],44.3%
same,Lym,[5],71.8%
same,MCH,[5],19.8 pg
same,MCHC,[5],35.2%
same,MCV,[5],56.1 fL
same,Mono,[5],3%
same,Neu,[5],23.2%
same,PT,[5],13.5 s
same,Plat,[5],96.8 x10_4/uL
same,RBC,[5],789.8 x10_4/ul
same,Ret,[5],2.1%
same,WBC,[5],110.3 x10_2/uL
same,KIDNEY_L,[3],1.2 g
same,KIDNEY_R,[3],1.2 g
same,KIDNEY_TOTAL,[3],2.4 g
same,KIDNEY_L,[4],1.2 g
same,KIDNEY_R,[4],1.2 g
same,KIDNEY_TOTAL,[4],2.4 g
same,KIDNEY_L,[5],1.4 g
same,KIDNEY_R,[5],1.4 g
same,KIDNEY_TOTAL,[5],2.8 g
same,LIVER,[3],12.6 g
same,LIVER,[4],13.3 g
same,LIVER,[5],15.6 g
same,ALP,[3],1724.6 IU/L
same,ALT,[3],51 IU/L
same,AST,[3],76 IU/L
same,BUN,[3],14.8 mg/dL
same,CRE,[3],0.2 mg/dL
same,DBIL,[3],0.02 mg/dL
same,GLC,[3],183.2 mg/dL
same,K,[3],3.8 meq/L
same,LDH,[3],68.4 IU/L
same,Na,[3],142.8 meq/L
same,PL,[3],150.8 mg/dL
same,RALB,[3],2.8 g/dL
same,TBIL,[3],0.034 mg/dL
same,TC,[3],78 mg/dL
same,TG,[3],141.2 mg/dL
same,TP,[3],6.1 g/dL
same,gamma-GTP,[3],1 IU/L
same,ALP,[4],1359.8 IU/L
same,ALT,[4],50.6 IU/L
same,AST,[4],74.4 IU/L
same,BUN,[4],17.2 mg/dL
same,CRE,[4],0.2 mg/dL
same,DBIL,[4],0.012 mg/dL
same,GLC,[4],174.6 mg/dL
same,IP,[4],8.6 mg/dL
same,K,[4],3.9 meq/L
same,LDH,[4],58.6 IU/L
same,Na,[4],145.4 meq/L
same,PL,[4],148.6 mg/dL
same,RALB,[4],2.8 g/dL
same,TBIL,[4],0.026 mg/dL
same,TC,[4],81.6 mg/dL
same,TG,[4],88.8 mg/dL
same,TP,[4],6.3 g/dL
same,gamma-GTP,[4],1.4 IU/L
same,ALP,[5],865.6 IU/L
same,ALT,[5],60.2 IU/L
same,AST,[5],78.2 IU/L
same,BUN,[5],18.4 mg/dL
same,CRE,[5],0.3 mg/dL
same,DBIL,[5],0.026 mg/dL
same,GLC,[5],185.6 mg/dL
same,IP,[5],7.3 mg/dL
same,K,[5],3.6 meq/L
same,LDH,[5],69.4 IU/L
same,Na,[5],143.4 meq/L
same,PL,[5],132 mg/dL
same,RALB,[5],2.8 g/dL
same,TBIL,[5],0.038 mg/dL
same,TC,[5],74 mg/dL
same,TG,[5],113 mg/dL
same,TP,[5],6.2 g/dL
same,gamma-GTP,[5],1.2 IU/L
same,TERMINAL_BW,[6],240.1 g
same,APTT,[6],17 s
same,Bas,[6],0%
same,Eos,[6],0.8%
same,Fbg,[6],275.8 mg/dL
same,Hb,[6],13.6 g/dL
same,Ht,[6],39.8%
same,Lym,[6],79%
same,MCH,[6],21.2 pg
same,MCHC,[6],34.2%
same,MCV,[6],61.9 fL
same,Mono,[6],2.4%
same,Neu,[6],17.2%
same,PT,[6],12.9 s
same,Plat,[6],114.3 x10_4/uL
same,RBC,[6],644 x10_4/ul
same,Ret,[6],6.4%
same,WBC,[6],89.1 x10_2/uL
same,KIDNEY_L,[6],1 g
same,KIDNEY_R,[6],1 g
same,KIDNEY_TOTAL,[6],2 g
same,LIVER,[6],9.9 g
same,ALP,[6],1714 IU/L
same,ALT,[6],45.4 IU/L
same,AST,[6],61.8 IU/L
same,BUN,[6],16.4 mg/dL
same,CRE,[6],0.2 mg/dL
same,DBIL,[6],0.014 mg/dL
same,GLC,[6],162.8 mg/dL
same,IP,[6],7.1 mg/dL
same,K,[6],4.4 meq/L
same,LDH,[6],45.2 IU/L
same,Na,[6],142.6 meq/L
same,PL,[6],142.8 mg/dL
same,RALB,[6],2.6 g/dL
same,TBIL,[6],0.038 mg/dL
same,TC,[6],88 mg/dL
same,TG,[6],43.6 mg/dL
same,TP,[6],5.6 g/dL
same,gamma-GTP,[6],1 IU/L
same,TERMINAL_BW,[7],269.7 g
same,TERMINAL_BW,[8],293.4 g
same,TERMINAL_BW,[9],333.5 g
same,APTT,[7],17.5 s
same,Bas,[7],0%
same,Eos,[7],0.8%
same,Fbg,[7],266.4 mg/dL
same,Hb,[7],14.1 g/dL
same,Ht,[7],40.5%
same,Lym,[7],77.8%
same,MCH,[7],21.1 pg
same,MCHC,[7],34.7%
same,MCV,[7],60.7 fL
same,Mono,[7],3.4%
same,Neu,[7],17.4%
same,PT,[7],13.5 s
same,Plat,[7],97.4 x10_4/uL
same,RBC,[7],667.6 x10_4/ul
same,Ret,[7],4%
same,WBC,[7],80.1 x10_2/uL
same,APTT,[8],18.2 s
same,Bas,[8],0%
same,Eos,[8],1%
same,Fbg,[8],278 mg/dL
same,Hb,[8],15.3 g/dL
same,Ht,[8],44.1%
same,Lym,[8],78.3%
same,MCH,[8],20.6 pg
same,MCHC,[8],34.8%
same,MCV,[8],59.1 fL
same,Mono,[8],2%
same,Neu,[8],17.7%
same,PT,[8],13.6 s
same,Plat,[8],94.8 x10_4/uL
same,RBC,[8],745 x10_4/ul
same,Ret,[8],2.9%
same,WBC,[8],85.7 x10_2/uL
same,APTT,[9],19.7 s
same,Bas,[9],0%
same,Eos,[9],1%
same,Fbg,[9],228.5 mg/dL
same,Hb,[9],15.9 g/dL
same,Ht,[9],44.5%
same,Lym,[9],78.5%
same,MCH,[9],19.5 pg
same,MCHC,[9],35.6%
same,MCV,[9],54.7 fL
same,Mono,[9],2%
same,Neu,[9],18%
same,PT,[9],14.7 s
same,Plat,[9],79 x10_4/uL
same,RBC,[9],813.5 x10_4/ul
same,Ret,[9],1%
same,WBC,[9],104.3 x10_2/uL
same,KIDNEY_L,[7],1.2 g
same,KIDNEY_R,[7],1.1 g
same,KIDNEY_TOTAL,[7],2.3 g
same,KIDNEY_L,[8],1.1 g
same,KIDNEY_R,[8],1.2 g
same,KIDNEY_TOTAL,[8],2.3 g
same,KIDNEY_L,[9],1.4 g
same,KIDNEY_R,[9],1.3 g
same,KIDNEY_TOTAL,[9],2.6 g
same,LIVER,[7],11 g
same,LIVER,[8],10.8 g
same,LIVER,[9],11.6 g
same,ALP,[7],1741.8 IU/L
same,ALT,[7],55.8 IU/L
same,AST,[7],65.8 IU/L
same,BUN,[7],16.2 mg/dL
same,CRE,[7],0.2 mg/dL
same,DBIL,[7],0.008 mg/dL
same,GLC,[7],162.2 mg/dL
same,K,[7],4.3 meq/L
same,LDH,[7],50 IU/L
same,Na,[7],142.4 meq/L
same,PL,[7],149.8 mg/dL
same,RALB,[7],2.6 g/dL
same,TBIL,[7],0.03 mg/dL
same,TC,[7],91.2 mg/dL
same,TG,[7],37.2 mg/dL
same,TP,[7],5.7 g/dL
same,gamma-GTP,[7],1.2 IU/L
same,ALP,[8],1433.3 IU/L
same,ALT,[8],45.3 IU/L
same,AST,[8],61.3 IU/L
same,BUN,[8],18.7 mg/dL
same,CRE,[8],0.3 mg/dL
same,DBIL,[8],0.01 mg/dL
same,GLC,[8],176.7 mg/dL
same,K,[8],3.8 meq/L
same,LDH,[8],47.7 IU/L
same,Na,[8],145.3 meq/L
same,PL,[8],138 mg/dL
same,RALB,[8],2.7 g/dL
same,TBIL,[8],0.0267 mg/dL
same,TC,[8],79.3 mg/dL
same,TG,[8],38.3 mg/dL
same,TP,[8],6 g/dL
same,gamma-GTP,[8],1.3 IU/L
same,ALP,[9],1187.5 IU/L
same,ALT,[9],54 IU/L
same,AST,[9],70 IU/L
same,BUN,[9],25 mg/dL
same,CRE,[9],0.3 mg/dL
same,DBIL,[9],0.02 mg/dL
same,GLC,[9],159.5 mg/dL
same,IP,[9],7.8 mg/dL
same,K,[9],4.2 meq/L
same,LDH,[9],38.5 IU/L
same,Na,[9],141 meq/L
same,PL,[9],125.5 mg/dL
same,RALB,[9],2.7 g/dL
same,TBIL,[9],0.04 mg/dL
same,TC,[9],62 mg/dL
same,TG,[9],61.5 mg/dL
same,TP,[9],6 g/dL
same,gamma-GTP,[9],2 IU/L
